Laboratory results reported in the supplement of paper PMC11451515.

System: P12-Ichikawa
Assay: cell viability relative to DMSO control; higher = less cytotoxic
Conditions: 48 h
Procedure, shortened: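 Cells were incubated for 48 h at 37°C before CellTiter-Glo One luminescence was read. The cells were NOMO1 or SEM (500 cells/well) or P12-Ichikawa (1000 cells/well) leukemia cells, adapted for at least four passages in each medium and seeded in 1536-well plates (5 μl). Dosing used library compounds in DMSO applied by pin over 11 threefold points, 47 μM to 0.79 nM. Viability is the per-plate percentage of DMSO wells, with cell-free wells as background.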

[1] = HPLM + 10% dialyzed FBS, 0.000781 µM
[2] = HPLM + 10% dialyzed FBS, 0.00234 µM
[3] = HPLM + 10% dialyzed FBS, 0.00702 µM
[4] = HPLM + 10% dialyzed FBS, 0.0211 µM
[5] = HPLM + 10% dialyzed FBS, 0.0632 µM
[6] = HPLM + 10% dialyzed FBS, 0.19 µM
[7] = HPLM + 10% dialyzed FBS, 0.569 µM
[8] = HPLM + 10% dialyzed FBS, 1.71 µM
[9] = HPLM + 10% dialyzed FBS, 5.12 µM
[10] = HPLM + 10% dialyzed FBS, 15.4 µM
[11] = HPLM + 10% dialyzed FBS, 46.1 µM
[12] = RPMI 5 mM glucose + 10% FBS, 0.000781 µM
[13] = RPMI 5 mM glucose + 10% FBS, 0.00234 µM
[14] = RPMI 5 mM glucose + 10% FBS, 0.00702 µM
[15] = RPMI 5 mM glucose + 10% FBS, 0.0211 µM
[16] = RPMI 5 mM glucose + 10% FBS, 0.0632 µM
[17] = RPMI 5 mM glucose + 10% FBS, 0.19 µM
[18] = RPMI 5 mM glucose + 10% FBS, 0.569 µM
[19] = RPMI 5 mM glucose + 10% FBS, 1.71 µM
[20] = RPMI 5 mM glucose + 10% FBS, 5.12 µM
[21] = RPMI 5 mM glucose + 10% FBS, 15.4 µM
[22] = RPMI 5 mM glucose + 10% FBS, 46.1 µM
[23] = RPMI 5 mM glucose + 10% dialyzed FBS, 0.000781 µM
[24] = RPMI 5 mM glucose + 10% dialyzed FBS, 0.00234 µM
[25] = RPMI 5 mM glucose + 10% dialyzed FBS, 0.00702 µM
[26] = RPMI 5 mM glucose + 10% dialyzed FBS, 0.0211 µM
[27] = RPMI 5 mM glucose + 10% dialyzed FBS, 0.0632 µM
[28] = RPMI 5 mM glucose + 10% dialyzed FBS, 0.19 µM
[29] = RPMI 5 mM glucose + 10% dialyzed FBS, 0.569 µM
[30] = RPMI 5 mM glucose + 10% dialyzed FBS, 1.71 µM
[31] = RPMI 5 mM glucose + 10% dialyzed FBS, 5.12 µM
[32] = RPMI 5 mM glucose + 10% dialyzed FBS, 15.4 µM
[33] = RPMI 5 mM glucose + 10% dialyzed FBS, 46.1 µM

| Compound | cell viability [1] | cell viability [2] | cell viability [3] | cell viability [4] | cell viability [5] | cell viability [6] | cell viability [7] | cell viability [8] | cell viability [9] | cell viability [10] | cell viability [11] | cell viability [12] | cell viability [13] | cell viability [14] | cell viability [15] | cell viability [16] | cell viability [17] | cell viability [18] | cell viability [19] | cell viability [20] | cell viability [21] | cell viability [22] | cell viability [23] | cell viability [24] | cell viability [25] | cell viability [26] | cell viability [27] | cell viability [28] | cell viability [29] | cell viability [30] | cell viability [31] | cell viability [32] | cell viability [33] |
| --- | --- | --- | --- | --- | --- | --- | --- | --- | --- | --- | --- | --- | --- | --- | --- | --- | --- | --- | --- | --- | --- | --- | --- | --- | --- | --- | --- | --- | --- | --- | --- | --- | --- |
| Cc1cc(O)c2c3c4c(cc(O)c13)C(C)(C)C(=O)c1c(O)cc(O)c(c1-4)C2=O | 104% | 108% | 111% | 107% | 111% | 106% | 113% | 107% | 106% | 105% | 39% | 107% | 106% | 109% | 99.8% | 114% | 107% | 115% | 109% | 110% | 97.2% | 42.2% | 103% | 112% | 117% | 109% | 107% | 101% | 111% | 104% | 105% | 93.2% | 35.2% |
| COC(=O)N1CCN(Cc2cccc(NC(=O)Nc3ccc(C)nc3)c2F)CC1 | 94.8% | 102% | 103% | 98.7% | 102% | 94.9% | 97.7% | 94.1% | 91% | 88.7% | 84.8% | 96.6% | 98.7% | 95.8% | 104% | 98.7% | 95.2% | 82.2% | 81.4% | 85.9% | 87.6% | 74.4% | 92.8% | 96% | 87.1% | 93.7% | 89.7% | 84.5% | 84.5% | 78.2% | 81.2% | 81.3% | 69% |
| NC(=O)N1c2ccccc2CC(=O)c2ccccc21 | 115% | 116% | 121% | 125% | 124% | 138% | 129% | 128% | 132% | 127% | 134% | – | – | – | – | – | – | – | – | – | – | – | – | – | – | – | – | – | – | – | – | – | – |
| ClC1=CC=C(CCCOC/2=N/NC(=O)C(=C2NCC3=CN=CC=C3)/Br)C=C1 | 115% | 115% | 113% | 117% | 118% | 110% | 104% | 95.5% | 61.6% | 35.7% | 14.4% | 109% | 114% | 110% | 122% | 125% | 124% | 113% | 112% | 96.3% | 69.6% | 38.5% | 113% | 115% | 116% | 110% | 110% | 115% | 106% | 90.4% | 56.7% | 26.9% | 13.7% |
| O=C1Nc2ccccc2/C1=C1\Nc2ccccc2C1=O | 106% | 106% | 109% | 102% | 104% | 101% | 104% | 103% | 94.9% | 104% | 97.9% | 101% | 111% | 103% | 105% | 110% | 108% | 104% | 104% | 95.9% | 99.7% | 98% | 99.3% | 102% | 105% | 91.2% | 104% | 97.1% | 106% | 94.9% | 93.1% | 102% | 83.4% |
| C#Cc1cccc(Nc2ncnc3cc(OCCOC)c(OCCO)cc23)c1 | 113% | 111% | 113% | 109% | 112% | 113% | 122% | 104% | 105% | 91.6% | 46.2% | 118% | 101% | 107% | 119% | 110% | 119% | 111% | 109% | 98.5% | 95.7% | 49.4% | 115% | 110% | 118% | 110% | 113% | 108% | 106% | 111% | 104% | 91.5% | 43.3% |
| OC[C@H]1O[C@@H](Oc2ccc(O)cc2)[C@H](O)[C@@H](O)[C@@H]1O | 85.1% | 93.5% | 93.1% | 95.7% | 98.3% | 99.9% | 102% | 101% | 94.2% | 98.4% | 97% | 80.7% | 79.8% | 87% | 94.9% | 95.7% | 86% | 84.7% | 83.6% | 90.9% | 93.1% | 91.3% | 80.1% | 84.8% | 91.1% | 93.4% | 93.6% | 87.8% | 88.4% | 88.7% | 93.1% | 89.6% | 88.4% |
| O=C(O)[C@H](Cc1c[nH]c2ccccc12)N1C(=O)c2ccccc2C1=O | 98.3% | 109% | 104% | 106% | 99.5% | 99.8% | 105% | 110% | 103% | 102% | 99.3% | 89.6% | 91.9% | 91.3% | 93.4% | 98.3% | 103% | 103% | 97% | 101% | 101% | 94.3% | 91.2% | 90.5% | 91.8% | 102% | 94.4% | 99.5% | 99% | 105% | 95% | 98.6% | 92.2% |
| CNC(=O)[C@H](Cc1ccccc1)NC(=O)[C@H](CC(C)C)[C@H](CSc1cccs1)C(=O)NO | 86.3% | 86.4% | 86.3% | 98.3% | 87.4% | 95.1% | 89.7% | 82.9% | 81.9% | 73.8% | 66.8% | 83.3% | 87.2% | 78.9% | 87% | 78% | 82.8% | 88.1% | 82.9% | 71% | 59.2% | 52.6% | 85.3% | 89.7% | 82.2% | 88.3% | 84.3% | 91% | 90.1% | 79.5% | 72.5% | 63.5% | 53% |
| CC(C)(C)/[N+]([O-])=C/c1ccc([S+](=O)([O-])[O][Na])cc1[S+](=O)([O-])[O][Na] | 110% | 114% | 112% | 122% | 117% | 131% | 127% | 125% | 121% | 119% | 133% | 108% | 96.5% | 108% | 111% | 120% | 123% | 127% | 122% | 126% | 124% | 122% | 108% | 114% | 114% | 121% | 113% | 120% | 124% | 123% | 120% | 119% | 116% |
| COc1ccc(Cc2nccc3cc(OC)c(OC)cc23)cc1OC | 122% | 120% | 117% | 120% | 125% | 122% | 119% | 116% | 115% | 107% | 96.5% | – | – | – | – | – | – | – | – | – | – | – | 121% | 114% | 126% | 126% | 123% | 126% | 121% | 119% | 105% | 111% | 78.5% |
| COc1cc2nccc(Oc3ccc(NC(=O)Nc4cc(C)on4)c(Cl)c3)c2cc1OC | 121% | 131% | 115% | 122% | 122% | 115% | 126% | 119% | 107% | 113% | 40.5% | 124% | 121% | 114% | 129% | 118% | 124% | 120% | 122% | 110% | 106% | 36.7% | – | – | – | – | – | – | – | – | – | – | – |
| COc1cc(N2CCC(C(N)=O)CC2)ccc1Nc1nc(N)c(Cl)c(Nc2ccccc2[S+](=O)([O-])C(C)C)n1 | 88.6% | 97.4% | 102% | 95.2% | 111% | 106% | 108% | 104% | 96.9% | 84.1% | 3.45% | 81.9% | 102% | 101% | 107% | 103% | 98.1% | 99.9% | 95.9% | 77.8% | 64.6% | 2.33% | 91.3% | 104% | 98.8% | 94.7% | 103% | 97.9% | 100% | 88% | 74.9% | 54.9% | 4.65% |
| Cc1ccc(C(C)(O)c2nc3ccccc3s2)c(C)c1 (stereo unspecified) | 97.8% | 110% | 103% | 108% | 106% | 114% | 82% | 109% | 79.4% | 37.5% | 10.2% | 91.2% | 105% | 107% | 111% | 100% | 107% | 91% | 113% | 70.8% | 51.2% | 8.46% | 95.5% | 103% | 102% | 111% | 111% | 98% | 101% | 108% | 79% | 63.9% | 13.2% |
| Clc1cccc(-c2nnnn2Cc2cccnc2)c1Cl | 88.7% | 96% | 92.4% | 95.5% | 94.9% | 87.4% | 77.9% | 74.1% | 74.5% | 70.4% | 56.6% | 88.5% | 91.2% | 86.6% | 91.1% | 96.1% | 93.7% | 94.9% | 65.7% | 57% | 60.6% | 56.7% | 86.1% | 91.3% | 93.9% | 95.2% | 93.8% | 88.9% | 86.4% | 64.3% | 61.8% | 65.7% | 48.6% |
